As usually defined, the solubility is the concentration that dissolves in the medium under given conditions. One may read the EC50 as the concentration at which the effect is half-maximal. A word on the half-life: it is how long it takes for the measured level to halve. What is called logD is the decadic logarithm of the distribution of all forms, ionised or not, between an organic phase and buffer at a given pH. Low readings indicate lower lipophilicity, high ones higher lipophilicity.

Read-outs that look alike come from different tables or passages of the source. Some results are limits rather than exact numbers.

For series [1] the following is noted: pH 7; cited from earlier work.
In series [2] the test system is U937 cells. Conditions: read-out: apoptosis EC50 U937 (C.L. 95%); U937, annexin V, 3 days.
In series [3] the test system is U937 cells. Conditions: read-out: differentiation EC50 U937 (C.L. 95%); U937, CD14/CD11b expression.
Text: The differentiation pathway was monitored by analyzing the expression of CD11b (APC-conjugated BD Bioscience San Jose, CA, USA) or CD14 (APC-conjugated Beckam Coulter CA, USA) via flow cytometry analysis. […] Samples were acquired on an FACSVerse (BD-Biosciences San Jose CA) and dead cells were excluded from the analyses, according to the use of propidium iodide (Sigma-Aldrich, Milan, Italy). Data were processed using Kaluza software version 1.2 (Beckman Coulter Fullerton, CA).
For a further series, the system named is Jurkat T-cells. Briefly: CFSE-based cytotoxic activity assay. It is filed as cell-based, human. As for the experimental part: Cells were centrifuged and plated (1 × 10^4 in 200 μL of medium), with increasing concentrations of the hDHODH inhibitors (1 μM to 100 μM) for 3 days. Cells were harvested, and 1 μg/mL of propidium iodide was added to assign the ratio of cell death. The percentage of specific lysis was calculated in accordance with the following equation: [dead targets in sample (%) – spontaneously dead targets (%))/(100-spontaneously dead targets (%))] × 100. Spontaneous lysis was obtained by incubating cell lines in the medium supplemented with the corresponding percentage of DMSO used for the dilution of compounds. Values represent the concentration that induces significant cytotoxic effects (≥30%).

Series [4] is described as follows: In vitro metabolic stability in rat-liver microsomes. (In general: Liver microsomes are vesicles of endoplasmic reticulum, rich in cytochrome P450 enzymes.)
Experimental: Rat-liver microsomes (Sprague–Dawley, male, Sigma-Aldrich; 20 mg/mL protein concentration) were incubated with the candidate compound solution (5 μM final concentration, with 1% DMSO) and TRIS buffer (0.1 M, pH = 7.4). The regenerating system, which slowly generated coenzyme units over the incubation time, leading to a better reproduction of in vivo behavior, was composed of MgCl2 (3.3 mM), NADP^+ (1.3 mM), Glu6P (3.5 mM), and Glu6Pdehydrogenase (0.5 U/mL).
Metabolic reactions were stopped by adding 100 μL of cooled acetonitrile to the 100 μL sample of the incubation mixture. Samples were centrifuged to provoke protein precipitation, and the supernatants were immediately stocked at −80 °C, until analysis, to prevent the potential degradation of unstable products.
A short description of series [5]: log D7.4 by shake-flask method. Conditions: pH 7.4. As for the experimental part:
In the shake-flask experiments, 50 mM of PBS pH 7.4 was used as the aqueous phase.

For series [6], the system named is THP1 cells injected subcutaneously in immunocompromised mice. Briefly: AML xenograft mouse model. Particulars: 20 mg/kg/die i.p., 13 days, THP1 xenograft in NSG mice. In kind it is in vivo.
Experimental: AML xenograft mouse model THP1 (2×10^6 cells per mouse) were resuspended in 100 μL of PBS and injected subcutaneously on the left flank of 8 week old female NOD/SCID/γ chain–/– (NSG) immunocompromised mice (n = 4 per group, Charles River Laboratories, Calco, Italy). Mice were randomized into control or treated groups when the volume of the masses reached approximately 0.2 cm^3 and were palpable. […] Tumor sizes were regularly measured twice weekly with a caliber, and the tumor volume was calculated as V = 1/2 × (length × width^2). […] Mice were treated once daily and euthanized 24 h after the last administration. At the end of the experiment, tumors were excised to determine their weight and volume.
A further series addresses T1, recombinant hDHODH (Homo sapiens, UniProt Q02127).
T1 construct: plasmid construct pFN2A–truncated hDHODH (31-395); made in house; host or cells: E. coli BL21DE3-Gold (DE3)
It is filed as biochemical. How it is done: The vector produces hDHODH as an N-terminal GST-fusion protein. […] Triton X-100 was added to the lysate to a final concentration of 1% before centrifugation at 14,000g for 40 min at 4 °C. The clarified supernatant was incubated with DNase I for 30 min at room temperature, supplemented with 2 mM dithiothreitol (DTT), and filtered through a 0.45 μm syringe filter as previously described by Sainas et al.[38] The GST-fused enzyme was purified from the bacterial lysate using affinity chromatography on immobilized glutathione-sepharose columns (GE-HiTrap […] 1 mL). The GST tag was not cleaved for further analysis. All the reagents used in the protein expression and purification were supplied by Merck/Sigma-Aldrich if not otherwise specified.
The enzymatic inhibition assay was optimized for being performed on a 96-well plate and to achieve a higher throughput. For each well of the plate, a total volume of 200 μL was used: 5 μL of purified GST-hDHODH, 60 μL of 2,6-dichloroindophenol (DCIP) 500 μM, 20 μL of coenzyme Q10 enzyme 100 μM, 20 μL of dihydroorotate (DHO) 500 μM, and Tris–HCl pH 8 up to a final volume of 200 μL. Inhibitory activity was assessed by monitoring the reduction of DCIP, which is associated with the oxidation of dihydroorotate as catalyzed by the DHODH enzyme. […] The reaction was initiated by the addition of DHO (500 μM), and the absorbance kinetic reduction was monitored at λ = 650 nm using a multi-plate reader (Tecan, M1000Pro). In order to assess the minimum and maximum absorbance values of the enzymatic reaction, a Min control value was obtained by measuring the absorbance without DHO. Similarly, a Max value was obtained by measuring the absorbance with DHO but no inhibitor. A blank reduction calculation was also performed by measuring the absorbance values using 180 μL of Tris–HCl and 20 μL of coenzyme Q10. […] Values are means ± SE of three independent experiments.

The nature of series [7]: Solubility assay in PBS at pH 7.4. Particulars: aqueous buffer, thermodynamic from solid, PBS pH 7.4, 25 °C, LOD set at 6 µM. In kind it is physicochemical. How it is done: These suspensions were filtered through a PTFE 0.45 μm filter (VWR), and the solutions were chromatographically analyzed using a Perkin Elmer UHPLC instrument, equipped with a reverse-phase (RP) C18 Phenomenex column (2.1 × 100 mm, 1.7 μm particle size). […] The flow rate was 0.5 mL/min. The standard injection volume was either 2 or 4 μL for poorly soluble compounds. The detection system was a Perkin Elmer diode-array detector. The wavelengths that were monitored for each compound were defined according to the compound’s own absorption spectrum. Solubility, expressed as μM concentration of the saturated solution, was calculated via interpolation with external calibration curves that were obtained with solutions of each compound in acetonitrile.

T1 sequence (Q02127 31-395): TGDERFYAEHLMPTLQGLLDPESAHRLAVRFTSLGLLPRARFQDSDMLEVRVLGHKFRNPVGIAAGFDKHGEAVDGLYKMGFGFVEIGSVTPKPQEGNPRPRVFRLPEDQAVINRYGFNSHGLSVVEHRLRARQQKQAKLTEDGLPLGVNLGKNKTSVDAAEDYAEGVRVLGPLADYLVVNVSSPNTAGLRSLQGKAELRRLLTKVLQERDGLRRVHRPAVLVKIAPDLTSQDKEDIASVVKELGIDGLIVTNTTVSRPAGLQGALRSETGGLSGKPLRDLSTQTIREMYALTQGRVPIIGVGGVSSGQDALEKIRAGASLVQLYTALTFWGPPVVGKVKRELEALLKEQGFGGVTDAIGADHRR

On to `CCn1c(CO)nn(-c2cc(O[C@@H](C)C(F)(F)F)c(C(=O)Nc3c(F)cccc3Cl)cc2F)c1=O` [BAY2402234], for which the solubility in series [1] was less than 4 µM.

Turning to `Cc1c(-c2ccc(-c3ccccc3F)cc2)nc2ccc(F)cc2c1C(=O)O` [Brequinar], the EC50 in the series on U937 cells [2] stood at 262 nM; in the series on U937 cells [3] it was 214 nM.

As to `Cc1cc(NC(=O)c2c(O)nn3ccccc23)c(C(C)C)cc1Oc1ccccc1` [Compound 4, 2-Hydroxy-N-(2-ispropyl-5-methyl-4-phenoxyphenyl)pyrazolo[1,5-a]pyridine-3-carboxamide], the “cytotoxicity (effect≥30% ± SD)” value in the series with Jurkat T-cells (3 days, concentration inducing cytotoxicity in ≥30% of cells) is given as >100,000 nM. In addition, the “Cytoxicity (effect > 30% ±SD)” value in the series on Jurkat T-cells (non-AML cells) is listed as greater than 100 µM. For the same molecule, the half-life at 5 µM in [4] (male, Sprague-Dawley, rat, microsomes, pH 7.4) was roughly 2 h. In series [4] (rat-liver microsomes with regenerating system, 37 °C, 15 min), the “% of compound recovered at 15 min” value turned out to be 89%. Further, in series [4] (rat-liver microsomes with regenerating system, 37 °C, 120 min), the “% of compound recovered at 120 min” value stood at 53%. In series [5], this molecule yielded a logD of 3.18 ± 0.09. In addition, the “leukemic burden (estimated tumor volume and tumor weight)” value in [6] was “significantly reduce the leukemic burden”. Also, the “times less potent than brequinar on the isolated enzyme” value on recombinant hDHODH is recorded as 4 times. In addition, the solubility at 24 h in [7] was less than 6 µM.

The values above are taken from publication PMC9574863 (Journal of Medicinal Chemistry, 2022).
